Key:
[1] = system: BOGA cells; assay: Analysis of aberrant chromosomes in metaphase spreads; assay type: cell-based, human
Procedure: Cells collected 24 hr post-IR were analyzed for genomic instability by quantitating the percentage of metaphases presenting with chromosomal aberrations, as shown in the images. N, number of independent experiments (50 metaphases analyzed per condition in each experiment). […] (FIG. 5C) Control and BOGA cells were incubated with the cathepsin inhibitor E-64 or vehicle control (C) for 24 hr prior to IR, and the extent of genomic instability assessed as in FIG. 5B. […] Treatment protocol was as in FIG. 5B. […] Treatment performed as in FIG. 5C. […] All values expressed as mean±SEM. N, number of independent experiments; *p value of statistical significance (*p≦0.05).
Cells were treated with the PARPi EB-47 (E8405, Sigma-Aldrich) diluted in water at a concentration of 1.2 μg/mL for 48 hours.

[2] = system: BOGA cells; assay: Relative cell numbers 4 days after IR (recovery from IR); assay type: cell-based, human; details: 4 days after combined treatment with IR
[3] = system: BOGA cells (BRCA1-deficient MCF7 cells that overcome growth arrest); assay: Western blot of 53BP1 protein levels in BOGA cells after treatment; assay type: cell-based, human; details: vitamin D 10^−7M or E-64 10 μM vs vehicle
Procedure: (FIG. 2A) MCF7 cells were transduced with shRNAs specific for depletion of 53BP1 (sh 53BP1), BRCA1 (sh BRCA1), or both combined. After selection (puromycin and/or G418), BRCA1, 53BP1, and CTSL levels were monitored by western. […] (FIG. 2C) Control and BOGA cells were transduced with sh CTSL or sh scr and the levels of CTSL, BRCA1, and 53BP1 monitored by western blot. […] (FIG. 2E) Control or BOGA cells were incubated with the broad cathepsin inhibitor E-64 (10 μM) or with vehicle (H2O), and the levels of 53BP1 and CTSL monitored by western blot.
BGS was the vehicle in control media.
Cells were incubated with the broad spectrum cathepsin inhibitor E-64 (E3132, Sigma-Aldrich) diluted in water at a concentration of 10 μM for 24 hours.
Briefly, cells were washed twice with PBS, and incubated in CSK I buffer (10 mM PIPES pH6.8, 100 mM NaCl, 300 mM sucrose, 3 mM MgCl2, 1 mM EGTA, and 0.5% Triton X-100) for 5 minutes. Coverslips were washed 5 times with cold PBS and fixed in modified STF buffer (150 mM 2-Bromo-2-nitro-1,3,-propanediol, 108 mM diazolidinyl urea, 10 mM Na citrate, and 50 nM EDTA pH 5.7) for 30 minutes at room temperature. Coverslips were then washed twice with cold PBS and permeabilized (PB buffer: 100 mM Tris-HCl pH 7.4, 50 mM EDTA pH 8.0, and 0.5% Triton X-100) for 15 minutes at room temperature followed by 2 washes in PBS. […]

[4] = system: OH mammary carcinoma system; details: mouse model; cited from earlier work
[5] = cited from earlier work
[6] = system: MEFs; details: cited from earlier work

## CC(C)C[C@H](NC(=O)[C@H]1O[C@@H]1C(=O)O)C(=O)NCCCCN=C(N)N [E-64]
[1]; treated 24 hr prior to 2 Gy, analysed 24 hr post-IR
  percentage of metaphases with aberrant chromosomes after IR: markedly increased genomic instability after IR
[2]
  recovery from IR (relative cell numbers): significantly reduced their recovery from IR
[3]
  53BP1 protein levels (western blot): increased levels of 53BP1 protein

## NC(=S)N/N=C(/c1cccc(O)c1)c1cccc(Br)c1 [KGP94]
[4]
  malignant breast tumour growth delay: showed great promise in this mouse model

## Nc1ncnc2c1ncn2[C@@H]1O[C@H](C(=O)N2CCN(CC(=O)Nc3cccc4c3CNC4=O)CC2)[C@@H](O)[C@H]1O [PARPi]
[1]; EB-47 1.2 μg/mL for 48 hr
  genomic instability (metaphases with chromosomal aberrations), PARPi alone: does not result in profound genomic instability

## C=C1/C(=C\C=C2/CCC[C@]3(C)[C@@H]([C@H](C)CCCC(C)(C)O)CC[C@@H]23)C[C@@H](O)C[C@@H]1O [vitamin D, 1α,25-dihydroxyvitamin D3]
[5]; cases with known dose and 25-hydroxy-vitamin D levels
  intake in published cases of toxicity involving hypercalcemia: 40,000 IU per day
[5]; healthy adults, after several months
  sustained intake producing overt toxicity: more than 1250 micrograms/day
[6]
  53BP1 protein stability: stabilizes 53BP1 protein in MEFs
  CTSL activity: inhibits CTSL activity

— US20140186468A1, “DIAGNOSING SUBSETS OF TRIPLE-NEGATIVE BREAST CANCER” (priority 2012, published 2014)
